In US4156731A, “Heterocyclic oxime compounds and carbamoyloxime derivatives” (priority 1976, dated 1979):

Key:
[1] = test system: Mexican bean beetle (Epilachna varivestis, Muls.); experiment: Mexican Bean Beetle Leaf Spray Test; assay type: in vivo; design: key: A: Excellent control; B: Partial control; C: No control; conditions: fourth instar larvae, 500 ppm leaf spray, three days
Protocol: (§1) Selected species of the new compounds were evaluated to determine their pesticidal activity against mites and certain insects, including anaphid, a caterpillar, a beetle and a fly.
(§2) Suspensions of the test compounds were prepared by dissolving one gram of compound in 50 milliliters of acetone in which had been dissolved 0.1 gram (10 percent of the weight of compound) of an alkylphenoxy polyethoxyethanol surfactant, as an emulsifying or dispersing agent. The resulting solution was mixed into 150 milliliters of water to give roughly 200 milliliters of a suspension containing the compound in finely divided form. The thus-prepared stock suspension contained 0.5 percent by weight of test compound. The test concentrations in parts per million by weight employed in the tests described hereinbelow were obtained by appropriate dilutions of the stock suspension with water. The test procedures were as follows:
Mexican Bean Beetle Leaf Spray Test
Fourth instar larvae of the Mexican bean beetle (Epilachna varivestis, Muls.), reared on Tendergreen bean plants at a temperature of 80°±5° F. and 50±5 per cent relative humidity, were the test insects.
The test compounds were formulated by diluting the stock suspension with water to give a suspension containing 500 parts of test compound per million parts of final formulation. Potted Tendergreen bean plants of standard height and age were placed on a revolving turntable and sprayed with 100-110 milliliters of test compound formulation by use of DeVilbiss spray gun set at 10 psig air pressure. This application, which lasted 25 seconds, was sufficient to wet plants to run-off. As a control, 100-110 milliliters of a water-acetone-emulsifier solution containing no test compound were also sprayed on infested plants. When dry, the paired leaves were separated and each was placed in a 9 centimeter Petri dish lined with moistened filter paper. Five randomly selected larvae were introduced into each dish, and the dishes were closed. The closed dishes were labeled and held at a temperature of […]. for three days. Although the larvae could easily consume the leaf within 24 to 48 hours, no more food was added. Larvae which were unable to move the length of the body, even upon stimulation, were considered dead.
(§3) In these tests the pesticidal activity of the compounds against aphid, mite, Southern Armyworm, Mexican Bean Beetle, and house fly was rated as follows: […]

[2] = Peroral toxicity to mammals (rat); conditions: in vivo, po, mortality rate of 50 percent, read-out: A. O. Rat LD50
Protocol: Certain of these compositions were also evaluated to determine their peroral toxicity to mammals. The animal selected for this experiment was the rat.

[3] = test system: two spotted mite (Tetranychus urticae Koch); experiment: Mite Foliage Spray Test; assay type: in vivo; design: key: A: Excellent control; B: Partial control; C: No control; conditions: 500 ppm foliage spray, six days
Protocol: as §1, §2
Adults and nymphal stages of the two spotted mite (Tetranychus urticae Koch), reared on Tendergreen bean plants at 80±5 per cent relative humidity, were the test organisms. Infested leaves from a stock culture were placed on the primary leaves of two bean plants six to eight inches in height, growing in a two-and-a-half inch clay pot. 150-200 mites, a sufficient number for testing, transferred from the excised leaves to the fresh plants in a period of twenty four hours. Following the twenty four hour transfer period, the excised leaves were removed from the infested plants. The test compounds were formulated by diluting the stock suspension with water to give a suspension with water to give a suspension containing 500 parts of test compound per million parts of final formulation. The potted plants (one pot per compound) were placed on a revolving turntable and sprayed with 100-110 milliliters of test compound formulation by use of a DeVilbiss spray gun set at 40 psig. air pressure. This application, which lasted for 25 seconds, was sufficient to wet the plants to run-off. As a control, 100-110 milliliters of a water solution containing acetone and emulsifier in the same concentrations as the test compound formulation, but containing no test compound, were also sprayed on infested plants. The sprayed plants were held at 80±5 per cent relative humidity for six days, after which a mortality count of motile forms were made. Microscopic examination for motile forms was made on the leaves of the test plants. Any individual which was capable of locomotion upon prodding, was considered living.
as §3

[4] = test system: house flies (Musca domestica, L.); experiment: Fly Bait Test; assay type: in vivo; design: key: A: Excellent control; B: Partial control; C: No control; conditions: adults, 500 ppm in sugar bait, twenty four hours
Protocol: as §1, §2
Four to six day old adult house flies (Musca domestica, L.) reared according to the specifications of the Chemical Specialities Manufacturing Association (Blue Book, McNair-Dorland Co., NY., 1954; pages 234-244, 261) under controlled conditions of 80°±5° F. and 50±5 per cent relative humidity, were the test insects. The flies were immobilized by anesthetizing with carbon dioxide and twenty five immobilized individuals, males and females, were transferred to a cage consisting of a standard food stainer about five inches in diameter which was inverted over a wrapping-paper-covered surface. The test compounds were formulated by diluting the stock suspension with a 10 per cent (by weight) sugar solution to give a suspension containing 500 parts of test compound per million parts of final formulation, by weight. Ten milliliters of the test formulation were added to a souffle cup containing a one inch square of an absorbent cotton pad. This bait cup was introduced and centered on the blotting paper under the food strainer prior to admitting the anesthetized flies. The caged flies were allowed to feed on the bait for twenty four hours, at a temperature of 80°±5° F. and the relative humidity of 50±5 per cent.
as §3

[5] = test system: bean aphid (Aphis fabae Scop.); experiment: Bean Aphid Foliage Spray Test; assay type: in vivo; design: key: A: Excellent control; B: Partial control; C: No control; conditions: 500 ppm foliage spray, 24 hour holding period
Protocol: as §1, §2
Bean Aphid Foliage Spray Test
Adults and nymphal stages of the bean aphid (Aphis fabae Scop.) reared on potted dwarf nasturtium plants at 65°-70° F. and 50-70 per cent relative humidity, constituted the test insects. For testing purposes, the number of aphids per pot was standardized to 100-150 by trimming plants containing excess aphids.
The test compounds were formulated by diluting the stock suspension with water to give a suspension containing 500 parts of test compound per million parts of final formulation.
The potted plants (one pot per compound tested) infested with 100-150 aphids, were placed on a revolving turntable and sprayed with 100-110 milliliters of test compound formulation by use of a DeVilbiss spray gun set at 40 psig. air pressure. This application, which lasted 25 seconds, was sufficient to wet the plants to run-off. As a control, 100-110 milliliters of a water-acetone-emulsifier solution containing no test compound were also sprayed on infested plants. After spraying, the pots were placed on their sides on a sheet of white standard mimeograph paper which had been previously ruled to facilitate counting. Temperature and humidity in the test room during the 24 hour holding period were 65°-70° F. and 50-70 per cent, respectively. Aphids which fell into the paper and were unable to remain standing after being uprighted were considered dead. Aphids remaining on the plants wre observed closely for movement and those which were unable to move the length of the body upon stimulator by prodding were considered dead. Per cent mortality was recorded for various concentration levels.
as §3

[6] = test system: southern armyworm (Prodenia Eridania, (Cram.)); experiment: Southern Armyworm Leaf Spray Test; assay type: in vivo; design: key: A: Excellent control; B: Partial control; C: No control; conditions: larvae, 500 ppm leaf spray, three days
Protocol: as §1, §2
Southern Armyworm Leaf Spray Test
Larvae of the southern armyworm (Prodenia Eridania, (Cram.), reared on Tendergreen bean plants at a temperature of 80°±5° F. and a relative humidity of 50±5 per cent, constituted the test insects.
The test compounds were formulated by diluting the stock suspension with water to give a suspension containing 500 parts of test compound per million parts of final formulation. Potted Tendergreen bean plants of standard height and age were placed on a revolving turntable and sprayed with […] of test compound formulation by use of a DeVilbiss spray gun set at 10 psig. air pressure.
This application, which lasted 25 seconds, was sufficient to wet plants to run-off. As a control, 100-110 milliliters of a water-acetone-emulsifier solution containing no test compound were also sprayed on infested plants. When dry, the paired leaves were separated and each one was placed in a 9 centimeter Petric dish lined with moistened filter paper. Five randomly selected larvae were introduced into each dish and the dishes were closed. The closed dishes were labeled and held at 80°-85° F. for three days. Although the larvae could easily consume the whole leaf within twenty-four hours, no more food was added. Larvae which were unable to move the length of the body, even upon stimulation by prodding, were considered dead. Per cent mortality was recorded for various concentration levels.
as §3

Row | SMILES | Mexican Bean Beetle pesticidal activity rating [1] | LD50 [2] | Mite pesticidal activity rating [3] | House-Fly pesticidal activity rating [4] | Bean Aphid pesticidal activity rating [5] | Southern Armyworm pesticidal activity rating [6]
1 | CC(C)N=C1SC(=NOC(=O)N(C)SN(C)C(=O)ON=C2SC(=NC(C)C)SC2(C)C)C(C)(C)S1 [XLIV, N,N'-Bis-[[5,5-Dimethyl-2-isopropylimino-4-[O-(N-methylcarbamoyl)oximino]-1,3-dithiolane]] sulfide] | A | 113 mg/kg | C | B | B | C
2 | CCN=C1SC(=NOC(=O)NC)C(C)(C)S1 [XLVI] | A | 6.3 mg/kg | C | A | A | B
3 | CNC(=O)ON=C1SC(=NC(C)C)SC1(C)C [XLVII] | A | 8.9 mg/kg | A | A | A | C
4 | CNC(=O)ON=C1SC(=NN(C)C)SC1(C)C [LV] | A | 1.8 mg/kg | A | A | A | A
5 | CC(C)N=C1SC(=NOC(=O)N(C)SC(Cl)(Cl)Cl)C(C)(C)S1 [XLVIII] | A | 226 mg/kg | A | A | A | C
6 | CNC(=O)ON=C1SC(=NC(C)(C)C)SC1(C)C [L] | A | 31.5 mg/kg | A | A | A | B
